Reference: US20260293897A1, “COMPOUND CONTAINING FIVE-MEMBERED HETEROCYCLE, PREPARATION METHOD THEREFOR, AND APPLICATION THEREOF” (QINGDAO KANGQIAO PESTICIDES AND CHEMICALS GROUP CO., LTD., priority 2022, published 2026)
Like-named read-outs stand apart in the source and are kept apart here.

What was measured:
Type in all cases: in vivo
[1] = system: Sensitive Plutella xylostella; assay: Sensitive Plutella xylostella Controlling Activity Test
Description: Sensitive Plutella xylostella Controlling Activity Test:
Test targets: Plutella xylostella, 3 rd instar larvae, a sensitive strain raised indoors.
The test method comprises the following steps: selecting fresh cabbage leaves cultivated in a greenhouse, making the cabbage leaves into round with the diameter of 3 cm by using a puncher, putting the circular blade into prepared liquid medicine to be soaked for 10 s according to the sequence from low dose to high dose of experimental design, naturally drying the cabbage leaves in the shade, putting the soaked cabbage leaves into a culture dish with filter paper and the diameter of 9 cm, inoculating regular healthy test insects, n=10, repeating the treatment for 3 times, and additionally setting blank control.

[2] = system: Resistant Plutella xylostella; assay: Resistant Plutella xylostella Controlling Activity Test; conditions: for Mortality (%): 0.2 ppm, 2nd instar, resistant, radish leaves dipped 10 s, 72 h (three days); for mortality at 0.2 ppm / mortality at 1 ppm / mortality at 5 ppm: Plutella xylostella, in Raphanus sativus, 72 h
Protocol: Resistant Plutella xylostella Controlling Activity Test:
Leaf dipping method was used, the appropriate amount of radish leaves were dipped into the drug for 10 s, placed in a plastic petri dish padded with filter paper and dried naturally, each dish was connected with 10 heads of 2nd instar small cabbage moths, placed in the observation room at 24° C. and light (16/8 h). 72 h later observation was made, and the body of the insect was touched lightly with a brush and no reaction was regarded as a dead insect, which was repeated for three times, and a blank control was also set up without any additional agent.

Tetranychus cinnabarinus = Tetranychus cinnabarinus Controlling Activity Test; conditions: 72 h; for mortality at 1.6 ppm: read-out: mortality against Tetranychus cinnabarinus; for mortality at 1.56 ppm / mortality at 3.125 ppm / mortality at 6.25 ppm / mortality at 12.5 ppm: in Phaseolus vulgaris
Protocol: Tetranychus cinnabarinus Controlling Activity Test:
The test compound was dissolved in acetone and diluted to the desired concentration with 0.1 wt % aqueous tween 80, the acetone content not exceeding 5 wt %.
One real leaf was removed from kidney bean seedlings grown to two real leaves, inoculating Tetranychus cinnabarinus, investigating the base number, performing whole plant spraying treatment by using a handheld sprayer, repeating the treatment for 3 times (the application amount of the preparation is about 0.5 g), observing in a constant-temperature observation room after the treatment, investigating the number of live mites after 72 hours, and calculating the mortality. The number of Tetranychus cinnabarinus inoculated in each time is 35-100.
Mortality%=(number of inoculated insects−number of live insects after drug administration)÷number of inoculated insects×100%

Spodoptera frugiperda = Spodoptera frugiperda Indoor Toxicity Determination Test; conditions: in Zea mays, read-out: mortality against Spodoptera frugiperda
Description: Spodoptera frugiperda Indoor Toxicity Determination Test
Test targets: Spodoptera frugiperda, 3rd instar larvae, a sensitive strain raised indoors.
The test method comprises the following steps: firstly, selecting fresh corn leaves cultivated in a greenhouse, cutting the fresh corn leaves into 5 cm-long leaf segments, sequentially arranging the test design from low dose to high dose, soaking the fresh corn leaves in prepared liquid medicine for 10 s, naturally drying the fresh corn leaves in the shade, then placing the dried corn leaves in a culture dish with filter paper and the diameter of 9 cm, inoculating regular healthy test insects, n=10, repeating the treatment for 3 times, and additionally arranging blank control.

Phyllotreta striolata = Phyllotreta striolata Controlling Activity Test; conditions: 72 h, read-out: mortality against Phyllotreta striolata
Protocol: Phyllotreta striolata Controlling Activity Test:
Preparing liquid medicine according to the experimental design concentration, selecting fresh cabbage leaves, soaking the cabbage leaves for 15 s, taking out, airing, placing in a glass tube, connecting 20-25 heads of the Flea beetles adults with each tube, repeating the treatment for 3 times, investigating the death condition of the Phyllotreta striolata after 72 hours, and calculating and correcting the death rate.

[3] = system: Frankliniella occidentalis larvae; assay: Frankliniella occidentalis Larva Controlling Activity Test; conditions: 72 h; for mortality at 3.25 ppm: read-out: mortality for Frankliniella occidentalis larvae; for mortality at 1.56 ppm / mortality at 3.125 ppm / mortality at 6.25 ppm: in Brassica oleracea
Protocol: Frankliniella occidentalis Larva Controlling Activity Test:
The test compound is dissolved in acetone and diluted to the desired concentration. 0.5 mL of the prepared acetone medicinal liquid is added into a glass tube (the inner diameter is 1 cm, the length is 10 cm), and the glass tube is repeatedly rolled on a flat table until the acetone solution is completely volatilized. Soaking cabbage leaves in the liquid medicine with the corresponding concentration for 15 s, drying, placing in a glass tube, inoculating 10-20 heads of Frankliniella occidentalis larvae in the glass tube, repeating the treatment for three times, observing in a constant-temperature observation room after the treatment, investigating the number of live insects after 72 hours, and calculating the mortality.

[4] = read-out: mortality against Plutella xylostella

Structure (SMILES)	mortality at 0.333 ppm ([1]; in Brassica oleracea, 72 h) [%]	mortality at 1 ppm ([1]; in Brassica oleracea, 72 h) [%]	mortality at 1 ppm [1, 4] [%]	Mortality (%) [2] [%]	mortality at 0.2 ppm [2] [%]	mortality at 1 ppm [2] [%]	mortality at 5 ppm [2] [%]	mortality at 1.6 ppm (Tetranychus cinnabarinus) [%]	mortality at 1.56 ppm (Tetranychus cinnabarinus) [%]	mortality at 3.125 ppm (Tetranychus cinnabarinus) [%]	mortality at 6.25 ppm (Tetranychus cinnabarinus) [%]	mortality at 12.5 ppm (Tetranychus cinnabarinus) [%]	mortality at 1 ppm (Spodoptera frugiperda) [%]	mortality at 50 ppm (Phyllotreta striolata) [%]	mortality at 3.25 ppm [3] [%]	mortality at 1.56 ppm [3] [%]	mortality at 3.125 ppm [3] [%]	mortality at 6.25 ppm [3] [%]
Cc1cc(C2=NOC(c3cc(C(F)(F)F)cc(C(F)(F)F)c3)(C(F)(F)F)C2)ccc1C(=O)NC1CCS(=O)(=O)C1 (stereo not drawn) [Compound I-25, 4-(5-(3,5-bis(trifluoromethyl)phenyl)-5-(trifluoromethyl ester)-4,5-dihydroisoxazol-3-yl)-N-(1,1-dioxotetrahydrothiophen-3-yl)-2-methylbenzamide]	65	100	> 90	100	100	100	100	> 90	90.3	99.3	100	100	> 90	> 90	> 90	100	100	100
Cc1cc(C2=NOC(c3cc(Cl)c(F)c(Cl)c3)(C(F)(F)F)C2)ccc1C(=O)NC1CCS(=O)(=O)C1.I (stereo not drawn) [Compound I-1, 4-(5-(3,5-dichloro-4-fluorophenyl)-5-(trifluoromethyl)-4,5-dihydroisoxazol-3-yl)-N-(1,1-dioxotetrahydrothiophen-3-yl)-2-methylbenzamide]	80	100	> 90	100	100	100	100	> 90	94.3	100	100	100	> 90	> 90	> 90	100	100	100
